Reference: patent US5721210A, “Cyclic cell adhesion modulation compounds” (priority 1995, dated 1998)
Where two headings read alike, the source gives them in different places. Bridge positions count the residues as written; N and C are the ends. Square brackets hold non-standard residues; d marks the D form. Peptide text beside a SMILES is read from it. * marks the point of attachment. Acetyl(1-adamantyl) = O=C(CC12CC3CC(CC(C3)C1)C2)*; 2Thi = N[C@@H](Cc1cccs1)C(=O)O; 4Amb = NCc1ccc(C(=O)O)cc1

Assays:
[1] = test system: U937 cells (fibronectin receptor) adhering to fibronectin-coated wells
[2] = test system: Jurkat T-cells adhering to IL-1 stimulated human umbilical vein endothelial cell monolayers; test: Jurkat-endothelial cell adhesion assay (Cell Adhesion Inhibition Assay II); assay type: cell-based; details: for 10 μM% (percentage inhibition at 10 μM): 10 μM peptide; for 10 μM% (percentage inhibition at 10 μM) / 200 μM% (percentage inhibition at 200 μM): Jurkat cells on IL-1 stimulated endothelial monolayers, 20 min at 37° C.; for 200 μM% (percentage inhibition at 200 μM): 200 μM peptide
Protocol: The following assay established the activity of the present compound in inhibiting cell-cell adhesion in a representative in vitro system. This assay measures the adhesive interactions of T-cells to endothelial cell monolayers in the presence of a test compound. The test compound is added in increasing concentrations with T-cells and this is added to endothelial cell monolayers. The plates are incubated, washed and the percentage of attached cells is quantitated.
Human umbilical vein endothelial cells were purchased from Clonetics (San Diego, Calif.) at passage number 2. The cells were grown on 0.5% porcine skin gelatin pre-coated flasks (Sigma, St. Louis, Mo.) in EGM-UV media (Clonetics, San Diego, Calif.) supplemented with 10% fetal bovine serum. Cells were refed every 2-3 days reaching confluence by day 4 to 6. […] The endothelial cells were not used following passage 14-15.
The T-cell line Jurkat was obtained from American Type Tissue Culture Collection (Rockville, Md.). The cells were cultured in RPMI media containing 10% fetal calf serum. The cells were washed twice with Hank's Balanced Salt Solution (HBSS) and resuspended in Dulbecco's […] Eagle's Media (DMEM) containing 2.5 mg/ml Human Serum Albumin (HSA). The Jurkat cells (1×10^6 cells/ml) were stained with 10 μg/ml fluorescein diacetate (Sigma, St. Louis, Mo.) in HSSS containing 5% fetal calf serum. The cells were stained for 15 minutes in the dark at room temperature, washed 2 times, and resuspended in a DMEM-HSA solution.
Confluent endothelial monolayers grown in 96-well tissue culture plates were stimulated for 4 hours at 37° C. with 0.1 ng/ml (^~ 50 U/ml) recombinant IL-1 (Amgen, Thousand Oaks, Calif.). Following this incubation, the monolayers were washed twice with HBSS and 0.1 ml of DMEM-HSA solution was added. Jurkat cells (5×10^5 cells) were combined with appropriate concentrations of a peptide to be tested and 0.1 ml of the Jurkat-peptide mixture were added to the endothelial cell monolayers. Generally, 200 and 10 μM peptide concentrations were tested. […] The plates were placed on ice for 5 minutes to allow for Jurkat cell settling and then incubated at 37° C. for 20 minutes. Following this incubation, the monolayers were washed twice with PBS containing 1 mM calcium chloride and 1 mM magnesium chloride and the plates were read using a Pandex Fluorescence Concentration Analyzer (Baxter, Mundelein, Ill.). Fluorescence in each well was measured as arbitrary fluorescence units and percent adhesion in the absence of a peptide was adjusted to 100% and the percentage adhesion in the presence of the peptide was calculated. Monolayers were also fixed in 3% paraformaldehyde and evaluated microscopically to verify adhesion.

[3] = read-out: IC50 μM, U937 cells on fibronectin-coated wells, 60 min at 37° C., concentration at which adhesion is inhibited to 50% of control

| Compound | IC50 [1, 3] | other results |
| --- | --- | --- |
| RC*D(TTC)C* [Peptide 122] | 6 µM | – |
| N=C(N)NCCC[C@@H]1NC(=O)CNC(=O)C[C@@H](C(N)=O)NC(=O)[C@@H]2CCCN2C(=O)[C@H](CO)NC(=O)[C@H](CC(=O)O)NC(=O)CNC1=O [Peptide 22, G*RGDSPD*-NH2] (GRGDSPD-NH2; lactam N-7) | 112 µM | – |
| N=C(N)NCCC[C@H](N)C(=O)N[C@H]1CSSC[C@@H](C(=O)O)NC(=O)[C@H](Cc2cccs2)NC(=O)[C@H](CC(=O)O)NC1=O [Peptide 101, RC*D(TA)C*] (H-RCD[2Thi]C-OH; disulfide 2-5) | 258 µM | – |
| (FMOC)-RC*D(TTC)C* [Peptide 166] | – | 10 μM% (percentage inhibition at 10 μM) [2]: 18%; 200 μM% (percentage inhibition at 200 μM) [2]: 11%; IC50 ([2]; Jurkat-endothelial cell adhesion, peptides tested at 200, 40, 8, 1.6, 0.32, 0.064 μM): 900 nM |
| (CPA)-RC*D-(3-thioPro)C* [Peptide 110] | 8 µM | – |
| COc1ccc(C[C@@H]2NC(=O)[C@H](CC(=O)O)NC(=O)CNC(=O)[C@H](CCCNC(=N)N)NC(=O)[C@@H](NC(=O)CNC(=O)CNC(=O)CC34CC5CC(CC(C5)C3)C4)CSSC[C@@H](C(N)=O)NC(=O)[C@@H]3CCCN3C2=O)cc1 [Peptide 96, (Ada)-GGC*RGDY(p-OCH3 -Tyr)PC*-NH2] ({Acetyl(1-adamantyl)}-GGCRGDY(Me)PC-NH2; disulfide 3-9) | 9 µM | – |
| N=C(N)NCCC[C@@H]1NC(=O)c2ccc(cc2)CNC(=O)[C@H](CC(=O)O)NC(=O)CNC1=O (cyclo(RGD[4Amb])) | – | IC50 [1]: 251 µM |
| (1-FCA)RC*D(TTC)C* [Peptide 132] | 92 µM | – |
| N=C(N)NCCC[C@@H]1NC(=O)CNC(=O)C[C@@H](C(N)=O)NC(=O)[C@@H]2CCCN2C(=O)[C@H](CO)NC(=O)[C@H](CC(=O)O)NC(=O)CNC1=O [Peptide 47, G*RGDSPD*-NH2] (GRGDSPD-NH2; lactam N-7) | 134 µM | – |
| (FMOC)-RC*(DTC)C* [Peptide 156] | – | 10 μM% (percentage inhibition at 10 μM) [2]: 90%; 200 μM% (percentage inhibition at 200 μM) [2]: 32% |
| N=C(N)NCCC[C@@H]1NC(=O)[C@@H](N)CSSC[C@@H](C(=O)O)NC(=O)[C@H](Cc2cccs2)NC(=O)[C@H](CC(=O)O)NC(=O)CNC1=O [Peptide 70, C*RGD(TA)C*] (H-CRGD[2Thi]C-OH; disulfide 1-6) | 190 µM | – |
